Assay results: paper PMC4711283, “Immobilization of halophilic Aspergillus awamori EM66 exochitinase on grafted k-carrageenan-alginate beads” (3 Biotech, 2016)

Test system: T1, A. awamori EM66 exochitinase
T1 construct: native secreted enzyme from culture supernatant of honey isolate, partially purified by ethanol fractionation, free (not immobilised)
Assay: p-nitrophenol release at […] nm, Lineweaver-Burk plot
Assay type: biochemical, Aspergillus awamori
Conditions: free enzyme, partially purified; acetate buffer pH 5.0; 30 °C; apparent Km

Km: 0.33 mg/mL
Structure (SMILES): CC(=O)N[C@H]1[C@H](Oc2ccc([N+](=O)[O-])cc2)O[C@H](CO)[C@@H](O)[C@@H]1O [PNP-β-GlcNAc, p-nitrophenyl-β-D-N-acetyl glucoseaminide]
